Test results published in patent US9364479B2, “Use of a receptor-type kinase modulator for treating polycystic kidney disease” (SYMPHONY EVOLUTION, INC., priority 2010, dated 2016).

Assays:
Type in all cases: biochemical
CDK7 = CDK7 (Homo sapiens, UniProt P50613); assay: In vitro kinase inhibition screen
Experimental: (§1) Further screening was performed using the biochemical assay methods of Example 2. Additional description of the components and concentrations are summarized in Table 8, Table 9, and Table 10, below.

CDK2 = CDK2 (Homo sapiens, UniProt P24941); assay: In vitro kinase inhibition screen
Experimental: as §1

Clk2 = Clk2 (Homo sapiens, UniProt P49760); assay: In vitro kinase inhibition screen
Experimental: as §1

Rsk2 = Rsk2 (Homo sapiens, UniProt P51812); assay: In vitro kinase inhibition screen
Experimental: as §1

Lyn = Lyn (Homo sapiens, UniProt P07948); assay: In vitro kinase inhibition screen
Experimental: as §1

Yes = Yes (Homo sapiens, UniProt P07947); assay: In vitro kinase inhibition screen
Experimental: as §1

PKBβ = PKBβ (Homo sapiens, UniProt P31751); assay: In vitro kinase inhibition screen
Experimental: as §1

Fes = Fes (Homo sapiens, UniProt P07332); assay: In vitro kinase inhibition screen
Experimental: as §1

[1] = In vitro kinase inhibition screen
Experimental: as §1

MKK4 = MKK4 (Homo sapiens, UniProt P45985); assay: In vitro kinase inhibition screen
Experimental: as §1

MAPKAP2 = MAPKAP2 (Homo sapiens, UniProt P49137); assay: In vitro kinase inhibition screen
Experimental: as §1

MEK1 = MEK1 (Homo sapiens, UniProt Q02750); assay: In vitro kinase inhibition screen
Experimental: as §1

Rsk3 = Rsk3 (Homo sapiens, UniProt Q15349); assay: In vitro kinase inhibition screen
Experimental: as §1

PKCα = PKCα (Homo sapiens, UniProt P17252); assay: In vitro kinase inhibition screen
Experimental: as §1

MAPK2 = MAPK2 (Homo sapiens, UniProt P28482); assay: In vitro kinase inhibition screen
Experimental: as §1

CSK = CSK (Homo sapiens, UniProt P41240); assay: In vitro kinase inhibition screen
Experimental: as §1

JNK1α = JNK1α (Homo sapiens, UniProt P45983); assay: In vitro kinase inhibition screen
Experimental: as §1

PKC-γ = PKC-γ (Homo sapiens, UniProt P05129); assay: In vitro kinase inhibition screen
Experimental: as §1

CamKII = assay: In vitro kinase inhibition screen
Experimental: as §1

SAPK3 = SAPK3 (Homo sapiens, UniProt P53778); assay: In vitro kinase inhibition screen
Experimental: as §1

PRAK = PRAK (Homo sapiens, UniProt Q8IW41); assay: In vitro kinase inhibition screen
Experimental: as §1

CamKIV = CamKIV (Homo sapiens, UniProt Q16566); assay: In vitro kinase inhibition screen
Experimental: as §1

CK2 = CK2 (Homo sapiens, UniProt P68400); assay: In vitro kinase inhibition screen
Experimental: as §1

MAPK1 = MAPK1 (Homo sapiens, UniProt P27361); assay: In vitro kinase inhibition screen
Experimental: as §1

MKK6 = MKK6 (Homo sapiens, UniProt P52564); assay: In vitro kinase inhibition screen
Experimental: as §1

p70S6K = p70S6K (Homo sapiens, UniProt P23443); assay: In vitro kinase inhibition screen
Experimental: as §1

JNK3α = JNK3α (Homo sapiens, UniProt P53779); assay: In vitro kinase inhibition screen
Experimental: as §1

SGK = SGK (Homo sapiens, UniProt O00141); assay: In vitro kinase inhibition screen
Experimental: as §1

c-Raf = c-Raf (Homo sapiens, UniProt P04049); assay: In vitro kinase inhibition screen
Experimental: as §1

MAP4K5 = MAP4K5 (Homo sapiens, UniProt Q9Y4K4); assay: In vitro kinase inhibition screen
Experimental: as §1

IKKβ = IKKβ (Homo sapiens, UniProt O14920); assay: In vitro kinase inhibition screen
Experimental: as §1

JNK2α = JNK2α (Homo sapiens, UniProt P45984); assay: In vitro kinase inhibition screen
Experimental: as §1

Rsk1 = Rsk1 (Homo sapiens, UniProt Q15418); assay: In vitro kinase inhibition screen
Experimental: as §1

MKK7β = MKK7β (Homo sapiens, UniProt O14733); assay: In vitro kinase inhibition screen
Experimental: as §1

PDGFR-α = PDGFR-α (Homo sapiens, UniProt P16234); assay: In vitro kinase inhibition screen
Experimental: as §1

CDK3 = CDK3 (Homo sapiens, UniProt Q00526); assay: In vitro kinase inhibition screen
Experimental: as §1

PKC-ξ = biological target: T1, PKC-ξ; assay: In vitro kinase inhibition screen
T1 construct: PKC-eta; Human, PanVera
Experimental: as §1

IKKα = IKKα (Homo sapiens, UniProt O15111); assay: In vitro kinase inhibition screen
Experimental: as §1

Blk = Blk (Homo sapiens, UniProt P51451); assay: In vitro kinase inhibition screen
Experimental: as §1

AMPK = assay: In vitro kinase inhibition screen
Experimental: as §1

CDK6 = CDK6 (Homo sapiens, UniProt Q00534); assay: In vitro kinase inhibition screen
Experimental: as §1

Syk = Syk (Homo sapiens, UniProt P43405); assay: In vitro kinase inhibition screen
Experimental: as §1

CDK5 = CDK5 (Homo sapiens, UniProt Q00535); assay: In vitro kinase inhibition screen
Experimental: as §1

PKBα = PKBα (Homo sapiens, UniProt P31749); assay: In vitro kinase inhibition screen
Experimental: as §1

Sequence of p70S6K (P23443 whole entry): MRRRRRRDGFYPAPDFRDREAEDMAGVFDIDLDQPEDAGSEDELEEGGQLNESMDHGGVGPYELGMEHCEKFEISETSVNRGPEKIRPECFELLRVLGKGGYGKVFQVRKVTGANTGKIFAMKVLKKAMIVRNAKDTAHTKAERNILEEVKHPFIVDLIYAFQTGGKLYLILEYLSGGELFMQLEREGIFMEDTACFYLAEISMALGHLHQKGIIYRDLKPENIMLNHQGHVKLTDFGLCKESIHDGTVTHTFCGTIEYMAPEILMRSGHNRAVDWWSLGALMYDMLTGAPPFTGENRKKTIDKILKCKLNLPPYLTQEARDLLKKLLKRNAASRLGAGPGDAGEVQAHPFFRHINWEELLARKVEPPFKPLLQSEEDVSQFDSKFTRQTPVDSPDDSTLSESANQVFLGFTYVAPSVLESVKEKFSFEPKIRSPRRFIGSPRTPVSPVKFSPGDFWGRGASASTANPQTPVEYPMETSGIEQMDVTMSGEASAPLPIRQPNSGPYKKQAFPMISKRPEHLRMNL
Sequence of CDK7 (P50613 whole entry, species assumed): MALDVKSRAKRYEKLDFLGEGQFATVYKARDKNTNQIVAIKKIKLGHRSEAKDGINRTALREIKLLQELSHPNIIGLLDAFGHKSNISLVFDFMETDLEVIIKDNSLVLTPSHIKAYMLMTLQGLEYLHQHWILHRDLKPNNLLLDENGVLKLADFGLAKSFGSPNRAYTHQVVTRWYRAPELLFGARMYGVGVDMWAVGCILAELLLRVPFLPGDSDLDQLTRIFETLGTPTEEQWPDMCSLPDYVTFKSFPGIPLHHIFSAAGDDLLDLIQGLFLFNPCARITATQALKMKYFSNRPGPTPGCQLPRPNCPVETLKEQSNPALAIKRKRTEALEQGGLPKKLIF
Sequence of CDK7 (P51946 whole entry partner, species assumed): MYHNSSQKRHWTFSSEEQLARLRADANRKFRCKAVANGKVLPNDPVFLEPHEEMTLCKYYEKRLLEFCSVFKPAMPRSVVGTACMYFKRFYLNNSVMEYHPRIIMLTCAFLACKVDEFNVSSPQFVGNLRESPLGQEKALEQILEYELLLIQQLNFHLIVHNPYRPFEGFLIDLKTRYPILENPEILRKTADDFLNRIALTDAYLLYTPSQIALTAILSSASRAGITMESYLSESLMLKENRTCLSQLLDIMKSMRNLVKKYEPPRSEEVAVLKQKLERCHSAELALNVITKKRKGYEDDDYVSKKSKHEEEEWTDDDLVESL
Sequence of CDK7 (P51948 whole entry partner, species assumed): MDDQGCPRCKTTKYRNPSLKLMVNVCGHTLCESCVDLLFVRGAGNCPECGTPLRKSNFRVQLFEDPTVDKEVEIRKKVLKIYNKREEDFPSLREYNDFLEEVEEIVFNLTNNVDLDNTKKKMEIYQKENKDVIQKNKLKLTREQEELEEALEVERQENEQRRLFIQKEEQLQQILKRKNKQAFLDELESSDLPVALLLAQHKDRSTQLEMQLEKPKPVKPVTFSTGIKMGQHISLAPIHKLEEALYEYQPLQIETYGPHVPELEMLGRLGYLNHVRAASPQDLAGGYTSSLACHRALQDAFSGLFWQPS
Sequence of MKK7β (O14733 whole entry): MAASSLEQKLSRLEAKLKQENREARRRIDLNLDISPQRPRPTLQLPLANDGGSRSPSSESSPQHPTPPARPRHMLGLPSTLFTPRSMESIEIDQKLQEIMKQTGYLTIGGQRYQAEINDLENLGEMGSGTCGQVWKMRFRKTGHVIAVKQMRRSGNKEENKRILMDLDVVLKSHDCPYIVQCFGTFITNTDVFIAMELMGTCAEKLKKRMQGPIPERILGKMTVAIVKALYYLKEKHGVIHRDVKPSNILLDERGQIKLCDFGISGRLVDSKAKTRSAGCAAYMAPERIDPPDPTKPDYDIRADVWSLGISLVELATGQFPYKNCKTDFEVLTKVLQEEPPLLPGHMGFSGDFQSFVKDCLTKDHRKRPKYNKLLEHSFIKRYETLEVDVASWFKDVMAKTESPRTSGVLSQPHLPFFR
Sequence of PDGFR-α (P16234 24-1089, species assumed): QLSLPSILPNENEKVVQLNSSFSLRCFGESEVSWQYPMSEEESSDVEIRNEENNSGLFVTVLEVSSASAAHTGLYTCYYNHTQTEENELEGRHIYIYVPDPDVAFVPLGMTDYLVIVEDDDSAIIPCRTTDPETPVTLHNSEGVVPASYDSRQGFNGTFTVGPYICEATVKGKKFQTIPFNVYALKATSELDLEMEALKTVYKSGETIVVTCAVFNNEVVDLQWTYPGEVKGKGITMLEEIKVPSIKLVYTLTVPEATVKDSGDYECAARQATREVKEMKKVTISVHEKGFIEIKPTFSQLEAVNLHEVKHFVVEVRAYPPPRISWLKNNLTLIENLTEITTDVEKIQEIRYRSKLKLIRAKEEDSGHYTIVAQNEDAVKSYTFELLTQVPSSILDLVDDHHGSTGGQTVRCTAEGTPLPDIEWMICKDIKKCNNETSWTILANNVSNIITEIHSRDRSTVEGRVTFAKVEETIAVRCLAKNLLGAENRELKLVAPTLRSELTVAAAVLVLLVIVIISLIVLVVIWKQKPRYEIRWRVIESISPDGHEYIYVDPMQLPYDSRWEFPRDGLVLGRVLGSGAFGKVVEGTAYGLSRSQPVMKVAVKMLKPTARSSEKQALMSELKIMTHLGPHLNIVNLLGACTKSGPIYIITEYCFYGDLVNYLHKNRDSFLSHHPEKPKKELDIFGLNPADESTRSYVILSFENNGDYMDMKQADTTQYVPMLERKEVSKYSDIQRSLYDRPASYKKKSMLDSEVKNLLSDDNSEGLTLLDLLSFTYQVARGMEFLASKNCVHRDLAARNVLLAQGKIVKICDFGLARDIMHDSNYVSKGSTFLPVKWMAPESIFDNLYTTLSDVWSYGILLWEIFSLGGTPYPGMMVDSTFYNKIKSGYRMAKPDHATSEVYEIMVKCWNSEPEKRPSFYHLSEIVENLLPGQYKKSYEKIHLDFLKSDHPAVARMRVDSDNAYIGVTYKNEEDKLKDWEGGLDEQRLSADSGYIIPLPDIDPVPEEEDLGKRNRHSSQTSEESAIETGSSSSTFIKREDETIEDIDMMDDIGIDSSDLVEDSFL
Sequence of SAPK3 (P53778 whole entry, species assumed): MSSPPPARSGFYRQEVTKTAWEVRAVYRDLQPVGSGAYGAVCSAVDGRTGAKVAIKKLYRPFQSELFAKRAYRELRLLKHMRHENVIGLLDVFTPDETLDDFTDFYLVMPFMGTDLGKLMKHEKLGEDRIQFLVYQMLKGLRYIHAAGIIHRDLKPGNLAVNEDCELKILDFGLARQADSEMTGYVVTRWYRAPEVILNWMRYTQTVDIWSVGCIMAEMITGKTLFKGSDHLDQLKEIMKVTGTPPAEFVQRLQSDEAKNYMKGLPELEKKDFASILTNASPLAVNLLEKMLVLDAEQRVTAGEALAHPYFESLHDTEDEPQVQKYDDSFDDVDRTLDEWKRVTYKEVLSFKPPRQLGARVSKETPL
Sequence of MAPKAP2 (P49137 whole entry): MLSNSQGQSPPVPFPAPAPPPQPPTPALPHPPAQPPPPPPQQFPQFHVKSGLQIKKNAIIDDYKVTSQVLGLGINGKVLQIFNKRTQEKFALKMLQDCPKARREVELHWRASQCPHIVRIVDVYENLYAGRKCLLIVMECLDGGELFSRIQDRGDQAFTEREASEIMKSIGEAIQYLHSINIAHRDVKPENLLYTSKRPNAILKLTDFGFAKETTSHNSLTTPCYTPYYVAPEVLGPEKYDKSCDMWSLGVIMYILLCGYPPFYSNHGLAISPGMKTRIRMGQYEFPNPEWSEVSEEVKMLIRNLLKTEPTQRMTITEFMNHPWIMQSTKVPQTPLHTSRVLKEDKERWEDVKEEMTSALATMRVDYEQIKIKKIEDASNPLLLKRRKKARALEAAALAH
Sequence of c-Raf (P04049 whole entry, species assumed): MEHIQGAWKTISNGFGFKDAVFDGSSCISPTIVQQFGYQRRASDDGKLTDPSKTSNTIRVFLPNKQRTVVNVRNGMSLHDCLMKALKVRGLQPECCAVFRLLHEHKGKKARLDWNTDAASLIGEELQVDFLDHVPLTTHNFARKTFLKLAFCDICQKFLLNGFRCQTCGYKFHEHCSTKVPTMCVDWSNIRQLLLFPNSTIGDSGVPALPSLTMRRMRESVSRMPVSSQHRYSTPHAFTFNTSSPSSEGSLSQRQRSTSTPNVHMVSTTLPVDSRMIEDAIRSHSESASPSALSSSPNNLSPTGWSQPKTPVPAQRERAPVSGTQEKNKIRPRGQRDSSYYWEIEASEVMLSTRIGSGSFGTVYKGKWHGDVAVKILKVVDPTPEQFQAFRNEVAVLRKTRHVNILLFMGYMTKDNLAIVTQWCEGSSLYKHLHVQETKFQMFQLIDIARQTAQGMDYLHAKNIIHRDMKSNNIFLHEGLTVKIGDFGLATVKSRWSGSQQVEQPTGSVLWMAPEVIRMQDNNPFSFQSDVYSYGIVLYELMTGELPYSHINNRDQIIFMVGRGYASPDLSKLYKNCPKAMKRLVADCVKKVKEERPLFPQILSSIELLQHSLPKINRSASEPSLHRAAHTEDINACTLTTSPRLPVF
Sequence of MAPK2 (P28482 whole entry): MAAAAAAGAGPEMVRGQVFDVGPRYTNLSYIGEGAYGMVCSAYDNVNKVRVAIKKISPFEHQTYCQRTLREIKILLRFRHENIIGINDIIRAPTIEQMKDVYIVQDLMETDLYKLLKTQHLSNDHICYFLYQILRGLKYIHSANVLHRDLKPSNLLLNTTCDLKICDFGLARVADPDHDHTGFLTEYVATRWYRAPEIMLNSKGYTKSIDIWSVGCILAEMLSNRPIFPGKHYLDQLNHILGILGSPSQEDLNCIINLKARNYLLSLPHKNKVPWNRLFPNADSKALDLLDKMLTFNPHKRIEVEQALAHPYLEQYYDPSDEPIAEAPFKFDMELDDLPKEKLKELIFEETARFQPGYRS

COc1cc2c(Nc3ccc(Cl)c(Cl)c3F)ncnc2cc1OC[C@@H]1C[C@@H]2CN(C)C[C@@H]2C1 [XL-647, N-(3,4-dichloro-2-fluorophenyl)-7-({[(3aR,5r,6aS)-2-methyloctahydrocyclopenta[c]pyrrol-5-yl]methyl}oxy)-6-(methyloxy)quinazolin-4-amine]
IC50 (CDK7): > 1 µM
IC50 (CDK2): > 1 µM
IC50 (Clk2): > 10 µM
IC50 (Rsk2): > 1 µM
IC50 (Lyn): 0.002 µM
IC50 (Yes): 0.0011 µM
IC50 (PKBβ): > 10 µM
IC50 (Fes): 0.474 µM
IC50 [1]: > 1 µM
IC50 (MKK4): > 1 µM
IC50 (MAPKAP2): > 10 µM
IC50 (MEK1): > 1 µM
IC50 (Rsk3): > 1 µM
IC50 (PKCα): > 10 µM
IC50 (MAPK2): > 1 µM
IC50 (CSK): 0.402 µM
IC50 (JNK1α): > 1 µM
IC50 (PKC-γ): > 10 µM
IC50 (CamKII): > 1 µM
IC50 (SAPK3): > 1 µM
IC50 (PRAK): > 1 µM
IC50 (CamKIV): > 1 µM
IC50 (CK2): > 1 µM
IC50 (MAPK1): > 1 µM
IC50 (MKK6): > 1 µM
IC50 (p70S6K; list in excess of 1 μM): > 1 µM
IC50 (p70S6K; list in excess of 10 μM): > 10 µM
IC50 (JNK3α): > 1 µM
IC50 (SGK): > 10 µM
IC50 (c-Raf): > 1 µM
IC50 (MAP4K5): > 1 µM
IC50 (IKKβ): > 1 µM
IC50 (JNK2α): > 1 µM
IC50 (Rsk1): > 1 µM
IC50 (MKK7β): > 1 µM
IC50 (PDGFR-α): 0.0644 ± 0.0072 µM
IC50 (CDK3): > 1 µM
IC50 (PKC-ξ): > 10 µM
IC50 (IKKα): > 1 µM
IC50 (Blk): 0.015 µM
IC50 (AMPK): > 1 µM
IC50 (CDK6): > 1 µM
IC50 (Syk): > 1 µM
IC50 (CDK5): > 1 µM
IC50 (PKBα): > 10 µM
